Results from PMC11818921, “Biological Activities of Constituents from Rosa roxburghii and Their Mechanisms Based on Network Pharmacology and Biological Verification” (International Journal of Molecular Sciences, 2025).
Entries after “also recorded” stand apart in the source; their conditions may differ.

Legend:
α-glucosidase = α-glucosidase (Saccharomyces cerevisiae, UniProt P53341); assay: α-Glucosidase inhibition assay (pNPG); format: biochemical; details: at a concentration of 200 μM; for inhibition at 200 µM: read-out: α-glucosidase inhibition rate
Protocol: For this assay, 20 μL of each sample, 20 μL of α-glucosidase solution (0.6 U/mL), and PBS solution (20 μL) were mixed, added to a 96-well plate, and incubated at 37 °C for 10 min, and then, pNPG solution (20 μL) was added and incubation continued for 30 min. At the end of incubation, the reaction was terminated with the addition of 80 μL of NaCO3 (0.2 M). The release of p-nitrophenol was measured by placing the 96-well plate at 405 nm on an enzyme meter (positive control: acarbose). The test was repeated three times for all samples.Inhibition (%) = (1 − A405 sample/A405 control) × 100%.

[1] = test system: NO release in LPS-induced RAW264.7 macrophages; assay: Inhibition of NO production induced by LPS in RAW264.7 cells; format: cell-based; details: LPS-induced RAW264.7 cells; for IC50: RAW264.7, 24 h, LPS 2 μg/mL, 24 h
Protocol: (§1) RAW264.7 cells were added to a 96-well plate (100 μL/well) at 1.5 × 10^5 cells/mL and incubated for 24 h (37 °C). The control group, model group, and experimental group were set up, with 4 replicates in each group. After incubation, the supernatant was discarded. The cells in the experimental group were treated with different concentrations of compounds, and each group was incubated with lipopolysaccharides (2 μg/mL) for 24 h (37 °C). According to the steps and requirements of the kit instructions, NO, TNF-α, and IL-6 content was detected.

[2] = ABTS free radical-scavenging assay; details: 6 min reaction, 734 nm
Protocol: In order to explore the antioxidant capacity of compounds 1–7, DPPH and ABTS free radical-scavenging methods were used in this experiment (ascorbic acid as a positive control). During the experimental operation, the antioxidant test method proposed by Zhu et al. was used as a reference. Different concentrations of each compound solution were added to 96-well plates, and then 100 μL of DPPH/ABTS solution was added to each well, and the reaction was performed at room temperature for 30 min (DPPH)/6 min (ABTS). After the reaction, the OD values of each well were measured at 517 nm (DPPH)/734 nm (ABTS) using a microplate reader. Finally, according to the measured OD value, the DPPH and ABTS free radical-scavenging rates of each sample were calculated. In order to ensure the accuracy and reliability of the experimental data, all samples were tested three times.Clearance = [1 − (A sample group − A control group)/A blank group] × 100%

[3] = RAW264.7 cell viability experiment (MTT); details: mouse, RAW264.7 cells
Protocol: (§2) RAW264.7 cells were cultured in DMEM containing 1% penicillin/streptomycin and 10% bovine fetal serum in an incubator (5% CO2, 37 °C).
(§3) RAW264.7 cells in the logarithmic growth phase were taken and adjusted to 1.5 × 10^5 cells/mL. The cells were inoculated in 96-well plates and divided into a control group, a blank group, and an experimental group with different concentrations. Each group had 4 duplicate wells and was incubated for 24 h (37 °C). Different concentrations of compounds (100 μL) were added to 96-well plates, and 100 μL of culture medium was added to the blank group and the control group, respectively, and incubated for 24 h. MTT (5 mg/mL, 10 μL) was incubated for 4 h (37 °C) per well. The OD value was measured at 450 nm using a microplate reader to calculate the cell viability.

IL-6 = assay: ELISA of IL-6 expression in LPS-stimulated RAW264.7 cells; format: cell-based; details: lowest concentration 12.5 μM
Protocol: as §1

TNF-α = assay: ELISA of TNF-α expression in LPS-stimulated RAW264.7 cells; format: cell-based; details: 50 μM
Protocol: as §1

RAW264.7 cells = details: 50 µM
Protocol: as §2, §3

[4] = Mus musculus, 50 µM, read-out: NO inhibition rate (%)

Sequence of α-glucosidase (P53341 whole entry): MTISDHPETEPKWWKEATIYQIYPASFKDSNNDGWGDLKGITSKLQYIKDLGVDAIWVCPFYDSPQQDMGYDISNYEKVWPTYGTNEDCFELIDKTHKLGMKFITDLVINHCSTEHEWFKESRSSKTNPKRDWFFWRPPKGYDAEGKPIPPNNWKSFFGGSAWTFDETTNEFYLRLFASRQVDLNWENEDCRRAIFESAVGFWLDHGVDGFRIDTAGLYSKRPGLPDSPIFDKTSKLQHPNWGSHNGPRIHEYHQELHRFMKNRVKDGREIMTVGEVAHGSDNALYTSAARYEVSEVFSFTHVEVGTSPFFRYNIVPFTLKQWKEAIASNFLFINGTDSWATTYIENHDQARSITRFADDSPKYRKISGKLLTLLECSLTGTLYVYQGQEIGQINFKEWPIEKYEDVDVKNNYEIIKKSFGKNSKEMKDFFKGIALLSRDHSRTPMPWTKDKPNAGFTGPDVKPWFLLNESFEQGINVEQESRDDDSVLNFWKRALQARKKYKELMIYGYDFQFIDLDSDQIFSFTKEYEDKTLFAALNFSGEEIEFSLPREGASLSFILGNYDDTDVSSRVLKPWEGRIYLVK

Compound | inhibition at 50 µM [1, 4] [%] | IC50 [2] [µM] | viability at 24 h, 50 µM [3] [%] | also measured
4-(1-Methoxyethenyl)phenol [Compound 7] |  |  |  | α-glucosidase inhibition rate (α-glucosidase): 41.1%
COC(=O)C1OC(OCC(O)COC(=O)c2cc(OC)c(O)c(OC)c2)C(O)C(O)C1O (stereo not shown) [Compound 1, Roxbubenzoate A] | 0 | 107 ± 1.1 | 100 | 
O=C1C[C@H](c2ccc(O)c(O)c2)Oc2cc(O)cc(O)c21 [Compound 2, (-)-eriodictyol] | 31.3 | 142.6 ± 0.8 | 100 | inhibition at 200 µM (α-glucosidase): 50.1%
O=C1c2c(O)cc(O)cc2O[C@H](c2ccc(O)cc2)[C@H]1O [Compound 3, aromadendrin] | 92.5 |  | 100 | effect on IL-6 expression (ELISA) (IL-6): strong inhibitory effect; also recorded: dose-dependently suppressed; IC50 ([1]; Mus musculus): 7.83 ± 2 µM; effect on TNF-α expression (ELISA) (TNF-α): significant inhibitory activity
CC1=C(CC[C@H](C)O[C@H]2O[C@@H](CO)[C@H](O)[C@@H](O)[C@@H]2O)C(C)(C)C=CC1=O [Compound 4, linarionoside A] | 6.6 |  | 98.8 | inhibition at 200 µM (α-glucosidase): 46.7%
S=C(S)N1CCCC1 [PDTC, Pyrrolidine dithiocarbamate, reference compound] |  |  |  | IC50 ([1]; Mus musculus): 3.13 ± 0.3 µM; inhibition at 5 µM ([1]; Mus musculus, 5 µM, positive control, read-out: NO inhibition rate (%)): 69.1%; viability at 24 h, 5 µM [3]: 98.5%
(1R)-4-[(3R)-3-hydroxybutyl]-3,5,5-trimethylcyclohex-3-en-1-ol [Compound 6] |  | 128.3 ± 1.2 |  | Cell viability (%) (RAW264.7 cells): 98.1%; NO inhibition rate (%) ([1]; 50 µM): 0.8%
